From US11446253B2, “Ionic liquids for internal delivery” (priority 2017, dated 2022)
Several values for one entry are separate records, joined by “and”; a condition that tells them apart may be missing. Identical values can stand only once. Like-named read-outs stand apart in the source and are kept apart here.

How the values were obtained:
Caco-2 monolayers [1] = assay: FITC-insulin transport across Caco-2 monolayers; format: cell-based, human
Protocol: TEER was measured on a regular basis and when it reached above 200 ohms·cm^2, indicating sufficient tight junction integrity between cells, transport study was performed.
(§1) After the end of study at 5 h, the FITC-insulin concentration in the aliquots were measured using a plate reader (Tecan, Infinite M1000, Mannedorf, Switzerland) at 495/520 nm excitation/emission wavelengths and plotted as % FITC-insulin transport vs time. Furthermore, TEER was measured at every time point when aliquots were withdrawn from the transwells and plotted as % change from initial value vs time.
TEER was measured on a regular basis and when it reached above 200 ohms. cm2, indicating sufficient tight junction integrity between cells, transport study was performed.
as §1, with “[…]” for “% change from initial value”

Caco-2 cells [2] = assay: Tight junction integrity (TEER) in Caco-2 cells; format: cell-based, human
Protocol: […] Furthermore, TEER was measured at every time point when aliquots were withdrawn from the transwells and plotted as % change from initial value vs time.
TEER values were recorded for each insert. […] TEER was plotted as % change from initial value vs time.

[3] = test system: non-diabetic male Wistar rats; assay: Blood glucose lowering after intrajejunal administration; format: in vivo, rat; conditions: intrajejunal controls (neat CAGE, 3 U/kg insulin-saline), 5 h
Protocol: Before the start of the study, the rats were anesthetized, abdominal hair clipped and the area prepped for surgery using 70% ethanol and betadine. An incision was made in the abdomen to expose the intestine. […] Each formulation was tested in 6 rats with the exception of saline which was tested in only 3 rats. Thereafter, intestinal section was placed back into the abdomen and the muscle and skin sutured. Blood glucose was determined using a commercial glucose meter in the beginning and at every 0.5 h till the end of study at 5 h. The animals remained anesthetized throughout the study, at the end of which they were euthanized and the intestinal section around the injection site was removed for further histological examination to determine toxicity, if any. […] The results were plotted as % change in blood glucose levels with respect to initial reading at t=0 vs time.
Before the start of the study, the rats were anesthetized, abdominal hair clipped, and the surgery area was prepped using 70% ethanol and betadine. An incision was made in the abdomen to expose the intestine. […] The time zero blood glucose was taken after the intestine was exposed i.e. immediately prior to the injections. Each formulation was tested in 6 rats with the exception of saline which was tested in only 3 rats. Thereafter, intestinal section was placed back into the abdomen and the muscle and skin sutured. Blood glucose was determined using a commercial glucose meter at the beginning and at every 0.5 h till the end of study at 5 h. Loss in body temperature in the animals during anesthesia was prevented by placing the animals on temperature controlled warming pads prior to surgery followed by additional towel cover after surgery. The animals remained anesthetized throughout the study and were euthanized after 5 h. At the end of study at 5 h, the intestinal section around the injection site was removed for further histological examination to determine toxicity, if any. […] The results were plotted as % change in blood glucose levels with respect to initial reading vs time. In addition, the saline group was considered as fasting control and graphs were plotted after subtracting blood glucose levels of the saline group.

[4] = test system: non-diabetic male Wistar rats; assay: Blood glucose lowering after oral administration in enterically coated capsules; format: in vivo, rat; conditions: oral controls, 12 h
Protocol: (§2) For the oral efficacy study, adult non-diabetic male Wistar rats were fasted overnight but given free access to water. On the next day, the capsules were administered to the rats using an oral gavage followed by subcutaneous administration of 5 mg/kg metoclopramide HCl to promote gastric emptying. Blood glucose was thereafter measured using a commercial glucose meter and subsequently every hour till 12 h. Rats were fasted throughout the period of study. […] In addition, the efficacy of subcutaneously injected 2 U/kg insulin-saline was also evaluated. […] The results were plotted as percent change in blood glucose level vs time.
as §2, with “To determine the efficacy of insulin-CAGE administered through the oral route, elongated size 9 capsules were used. […] Following this, the capsules were enterically coated three times with 12.5% w/v Eudragit® L-100 dissolved in isopropanol. For” for “For”, “Next” for “On the next”, “was” for “was also”, “time. […] After 12 h of study, rats were euthanized, and small intestinal sections were collected for tissue histology.” for “time.”

Caco-2 cells [5] = conditions: Caco-2, 12-48 h incubation
Protocol: Control wells were filled with media only. […] The plates were wrapped in foil and shaken for 20 min, then absorbance was read at 570 nm using a microplate reader (M220 Infinite Pro, Tecan Group Ltd, Morrisville, N.Y.). Absorbance readings were normalized using the non-treated cell viability values.

[6] = FITC labeled dextran, neat CAGE sample
Protocol: These experiments were done using skin as a model tissue. […] 50 ul of each sample was injected intradermally into one side of a 5 cm×5 cm square of porcine skin. […] The samples were incubated at RT for 2 h (while we were getting trained) and then imaged. The samples were incubated for an additional 2 h at 37° C. and imaged again. 2 h samples had different exposures (we were still learning the system). The 4 h samples were all taken at the same exposure. The size of the fluorescing area for each sample and time point was estimated by drawing a shape around the area manually using ImageJ™

Caco-2 monolayers [7] = conditions: for enhancement of 4 kDa FITC-dextran transport: various time points
Protocol: (§3) Before the start of the experiment, the medium in the transwells was replaced with DMEM devoid of phenol red, FBS and P/S in both the apical (200 μL) and basolateral side (600 μL) and the cells were incubated for 30 minutes. […] This was repeated at 1, 2, 3, 4 and 5 h. During the study, the transwell plates were placed inside an incubator at 37° C., 5% CO2 on a shaker rotating at 100 rpm and only taken out to remove aliquots at each time point. After the end of study at 5 h, fluorescence in the aliquots with FTIC-dextran concentrations were measured using a plate reader (BioTek Synergy NEO HTS™ microplate reader (Winooski, Vt., USA) at 485/530, 495/520 and 468/568 nm excitation/emission wavelengths, respectively. Calibration solutions for each test article were prepared and analyzed using fluorescence readings for FITC-dextran which was used to plot of basolateral chamber concentration vs time plots.

Caco-2 monolayers [8] = test system: Caco-2 monolayers
Protocol: For transport experiments in transwells, a 3-day rapid Caco-2 growth system was used. Cells were placed in Corning® basal seeding medium (BSM) supplemented with MITO serum+ extender and seeded at density of 400,000 cells/mL on Millicell® PCF inserts placed inside 24-well plates. 500 μL of cells containing medium was placed in apical side while 1000 μL of cell free BSM was put in the basolateral side as per manufacturer recommendation. After 24 h of incubation at 37° C., 5% CO2, the medium was replaced with same volume of enterocyte differentiation medium supplemented with MITO serum+ extender for another 2-4 days.
as §3, with “During the study, the transwell plates were placed inside an incubator at 37° C., 5% CO2 on a shaker rotating at 100 rpm and only taken out to remove aliquots at each time point.” left out, “LY and coumarin-6” for “FTIC-dextran”, “LY and coumarin-6” for “FITC-dextran”

Caco-2 cells [9] = assay: GFP plasmid transfection of Caco-2 cells; format: cell-based, human; conditions: Caco-2, CAGE in lieu of lipofectamine, P3000 0.09%
Protocol: Caco-2 cells were seeded at 80% confluency in either 96-well half area or 24-well tissue culture treated plates a day prior to adding transfection reagents. For lipofectamine transfection studies, Lipofectamine 3000 reagent (final concs. 0.07% or 0.13%) was prepared in Opti-Mem Medium and mixed. A master mix of plasmid DNA was prepared separately by diluting the GFP plasmid (50 ng/well for 96-well half area plate or 250 ng/well for 24-well plate) in Opti-Mem Medium with P3000 enhancer reagent (final conc. 0.09% v/v). The master mix of plasmid DNA was added to tubes of the diluted lipofectamine 3000 reagent at a 1:1 ratio. The mixture was allowed to incubate for 20 minutes at room temperature to allow for the plasmid to become incorporated into the cationic lipofectamine. The DNA-lipid complex mixture was then added directly to cells in complete cell culture media at final concs. of 0.07% or 0.13%. Total volume of 96-well half area plate was 100 uL and for the 24-well plate 500 uL. This transfection mixture was removed after 3 days of incubation, washed with DPBS, and replaced with complete DMEM cell culture media.
If P3000 enhancer reagent was used, the final conc. was maintained at the same 0.09%. The transfection mixtures were removed after 1 day or 3 days, washed with DPBS, and replaced with complete DMEM cell culture media.

Question: Which “enhancement of FITC-insulin transport vs no CAGE” value (“enhancement … vs no CAGE” below) (Caco-2 monolayers [1]; 10 mM CAGE (Example 9)) does the source give for Choline And GEranate [CAGE] here?
Answer: 1.5-2 fold

Question: And the “enhancement of insulin transport compared to insulin in saline” value (Caco-2 monolayers [1]; 10 mM CAGE, Caco-2, 5 h study)?
Answer: 3-4 fold

Question: What about the “higher transport of insulin compared to insulin-saline treated cells” value (Caco-2 monolayers [1]; 10 mM CAGE, all time points over 5 h) of the same substance?
Answer: at least 3 times

Question: And the “enhancement … vs no CAGE” value (Caco-2 monolayers [1]; 25 mM CAGE)?
Answer: 1.5-2 fold

Question: What about the “enhancement … vs no CAGE” value (Caco-2 monolayers [1]; 50 mM CAGE, all time points) of the same substance?
Answer: > 10 fold

Question: And the TEER drop (Caco-2 cells [2]; 10 mM CAGE, 1 h)?
Answer: 29%

Question: And the TEER decrease (Caco-2 cells [2]; 25 mM CAGE)?
Answer: 40-50% and ~40%

Question: What about the TEER decrease (Caco-2 cells [2]; 50 mM CAGE) of the same substance?
Answer: 40-50% and ~50%

Question: And the “TEER recovery, % of initial level” value (Caco-2 cells [2]; 50 mM CAGE, 24 h)?
Answer: 58%

Question: And the “decrease in blood glucose of control groups, % of initial level” value [3]?
Answer: about 25%

Question: And the “decrease in blood glucose of formulation controls” value [4]?
Answer: about 25%

Question: What about the IC50 (Caco-2 cells [5]) of the same substance?
Answer: 10 mM

Question: And the “area increase between 2 h and 4 h” value [6]?
Answer: about 2 ×

Question: What about the “enhancement of 4 kDa FITC-dextran transport” value (Caco-2 monolayers [7]; 25 mM CAGE) of the same substance?
Answer: 2-6 fold

Question: What about the “enhancement of 4 kDa FITC-dextran transport” value (Caco-2 monolayers [7]; 50 mM CAGE) of the same substance?
Answer: 6-13 fold

Question: What about the “enhancement of 4 kDa FITC-dextran transport reached” value (Caco-2 monolayers [7]; concentration-dependent, highest) of the same substance?
Answer: 13 fold

Question: What about the “enhancement of Lucifer yellow transport” value (Caco-2 monolayers [8]; 10 mM CAGE) of the same substance?
Answer: ~2 fold

Question: What about the “enhancement of Lucifer yellow transport” value (Caco-2 monolayers [8]; 50 mM CAGE, various time points) of the same substance?
Answer: 7-10 fold

Question: What about the GFP plasmid transfection (Caco-2 cells [9]) of the same substance?
Answer: can deliver DNA into cells
